Several values for one entry are separate records, joined by “and”; a condition that tells them apart may be missing. Identical values can stand only once. Toxic doses and inconclusive results are not listed. Peptide text beside a SMILES is read from it. * marks the point of attachment. Cbz = O=C(OCc1ccccc1)*
Test system: BDF1 mice, B16 melanoma ip, median survival T/C
Experiment: NCI In Vivo Anticancer Drug Screen. Data for tumor model B16 Melanoma (intraperitoneal) in B6D2F1 (BDF1) mice
Details: endpoint: median survival time, higher = longer survival
Outline: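 The ratio T/C compares compound-treated mice with vehicle-treated controls, using survival or tumor size as the endpoint in a transplantable tumor model.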

[1] = dose: 12.5 mg/kg/injection, schedule: Q01DX009 (ip), vehicle: saline with Tween-80
[2] = dose: 25.0 mg/kg/injection, schedule: Q01DX009 (ip), vehicle: saline with Tween-80
[3] = dose: 100.0 mg/kg/injection, schedule: Q01DX009 (ip), vehicle: Klucel (hydroxypropylcellulose) (HPC)
[4] = dose: 100.0 mg/kg/injection, schedule: Q04DX003 (ip), vehicle: Klucel (hydroxypropylcellulose) (HPC)
[5] = dose: 200.0 mg/kg/injection, schedule: Q04DX003 (ip), vehicle: Klucel (hydroxypropylcellulose) (HPC)
[6] = dose: 400.0 mg/kg/injection, schedule: Q04DX003 (ip), vehicle: Klucel (hydroxypropylcellulose) (HPC)
[7] = dose: 100.0 mg/kg/injection, schedule: Q01DX009 (ip), vehicle: saline with Tween-80
[8] = dose: 200.0 mg/kg/injection, schedule: Q01DX009 (ip), vehicle: saline with Tween-80
[9] = dose: 400.0 mg/kg/injection, schedule: Q01DX009 (ip), vehicle: saline with Tween-80
[10] = dose: 50.0 mg/kg/injection, schedule: Q01DX009 (ip), vehicle: saline
[11] = dose: 100.0 mg/kg/injection, schedule: Q01DX009 (ip), vehicle: saline
[12] = dose: 200.0 mg/kg/injection, schedule: Q01DX009 (ip), vehicle: saline
[13] = dose: 12.5 mg/kg/injection, schedule: Q01DX009 (ip), vehicle: saline
[14] = dose: 50.0 mg/kg/injection, schedule: Q01DX009 (ip), vehicle: saline with Tween-80
[15] = dose: 25.0 mg/kg/injection, schedule: Q01DX009 (ip), vehicle: saline
[16] = dose: 50.0 mg/kg/injection, schedule: Q01DX009 (ip), vehicle: saline sonified
[17] = dose: 25.0 mg/kg/injection, schedule: Q01DX009 (ip), vehicle: Klucel (hydroxypropylcellulose) (HPC)
[18] = dose: 50.0 mg/kg/injection, schedule: Q01DX009 (ip), vehicle: Klucel (hydroxypropylcellulose) (HPC)
[19] = dose: 1.0 mg/kg/injection, schedule: Q01DX009 (ip), vehicle: saline sonified
[20] = dose: 2.0 mg/kg/injection, schedule: Q01DX009 (ip), vehicle: saline sonified
[21] = dose: 4.0 mg/kg/injection, schedule: Q01DX009 (ip), vehicle: saline sonified

Structure (SMILES): ClC1=C(Cl)C(Cl)=C(Cl)C1=Cc1ccccc1
- T/C (dose: 1.56 mg/kg/injection, schedule: Q01DX009 (ip), vehicle: saline with Tween-80): 97 % of control
- T/C (dose: 3.13 mg/kg/injection, schedule: Q01DX009 (ip), vehicle: saline with Tween-80): 92 % of control
- T/C (dose: 6.25 mg/kg/injection, schedule: Q01DX009 (ip), vehicle: saline with Tween-80): 102 % of control
- T/C [1]: 111 % of control
- T/C [2]: 95 % of control

Structure (SMILES): O=C1NC(=S)S/C1=C\c1ccc(Cl)c(Cl)c1
- T/C [3]: 88 % of control
- T/C [4]: 88 % of control
- T/C (dose: 200.0 mg/kg/injection, schedule: Q01DX009 (ip), vehicle: Klucel (hydroxypropylcellulose) (HPC)): 97 % of control
- T/C [5]: 93 % of control
- T/C (dose: 400.0 mg/kg/injection, schedule: Q01DX009 (ip), vehicle: Klucel (hydroxypropylcellulose) (HPC)): 97 % of control
- T/C [6]: 88 % of control

Structure (SMILES): CCC(C)C(C)(COC(N)=O)COC(N)=O (stereo unspecified)
- T/C [4]: 97 % of control
- T/C [5]: 102 % of control
- T/C [6]: 105 % of control

Structure (SMILES): COC(=O)c1c(C)cc(OC(=O)c2c(C)c(Cl)c(O)c(Cl)c2O)cc1O
- T/C (dose: 5.0 mg/kg/injection, schedule: Q01DX009 (ip), vehicle: Klucel (hydroxypropylcellulose) (HPC)): 97 % of control
- T/C (dose: 10.0 mg/kg/injection, schedule: Q01DX009 (ip), vehicle: Klucel (hydroxypropylcellulose) (HPC)): 94 % of control
- T/C (dose: 20.0 mg/kg/injection, schedule: Q01DX009 (ip), vehicle: Klucel (hydroxypropylcellulose) (HPC)): 100 % of control

Structure (SMILES): CCCCNC(=O)Nc1ccccc1Cl
- T/C [7]: 100 % of control
- T/C [8]: 98 % of control
- T/C [9]: 98 % of control

Structure (SMILES): CN(C)CCC#N
- T/C [10]: 113 % of control and 122 % of control
- T/C [11]: 110 % of control and 113 % of control
- T/C [12]: 105 % of control and 122 % of control

Structure (SMILES): O=C(O)CCNCc1ccccc1
- T/C [13]: 111 % of control
- T/C [10]: 102 % of control
- T/C [11]: 106 % of control
- T/C [12]: 111 % of control

Structure (SMILES): O=C(Oc1ccc(-c2ccc(Br)cc2)cc1)c1ccco1
- T/C [14]: 88 % of control

Structure (SMILES): O=C1C=CN(C2OC(CO)C(O)C2O)C(=O)C1 (stereo unspecified)
- T/C [13]: 104 % of control
- T/C [15]: 104 % of control
- T/C [16]: 100 % of control
- T/C [10]: 119 % of control
- T/C (dose: 100.0 mg/kg/injection, schedule: Q01DX009 (ip), vehicle: saline sonified): 86 % of control
- T/C [11]: 118 % of control
- T/C (dose: 200.0 mg/kg/injection, schedule: Q01DX009 (ip), vehicle: saline sonified): 89 % of control

Structure (SMILES): COC(=O)C1(N)CCCC1
- T/C (dose: 6.25 mg/kg/injection, schedule: Q01DX009 (ip), vehicle: saline): 105 % of control and 110 % of control
- T/C [13]: 108 % of control and 109 % of control and 122 % of control
- T/C [15]: 121 % of control and 123 % of control

Structure (SMILES): CNc1ccc(/C=C2\C=Cc3ccccc32)cc1
- T/C (dose: 12.5 mg/kg/injection, schedule: Q01DX009 (ip), vehicle: gum acacia): 104 % of control
- T/C [17]: 109 % of control
- T/C (dose: 25.0 mg/kg/injection, schedule: Q01DX009 (ip), vehicle: gum acacia): 91 % of control
- T/C [18]: 112 % of control
- T/C (dose: 50.0 mg/kg/injection, schedule: Q01DX009 (ip), vehicle: gum acacia): 102 % of control

Structure (SMILES): CC(NC(=O)C(Cc1ccc(O)cc1)NC(=O)C(C)NC(=O)OCc1ccccc1)C(=O)O (stereo not drawn) (Cbz-Ala-Tyr-Ala-OH; configuration not given here)
- T/C [14]: 98 % of control
- T/C [7]: 93 % of control
- T/C [8]: 96 % of control
- T/C [9]: 92 % of control

Structure (SMILES): O=CC1CO1 (stereo unspecified)
- T/C (dose: 12.5 mg/kg/injection, schedule: Q01DX009 (ip), vehicle: saline sonified): 90 % of control
- T/C (dose: 25.0 mg/kg/injection, schedule: Q01DX009 (ip), vehicle: saline sonified): 90 % of control
- T/C [16]: 97 % of control

Structure (SMILES): CC[C@@H](C(=O)[C@@H](C)[C@@H](O)[C@H](C)CCc1ccc(C)c(O)c1C(=O)O)[C@H]1O[C@](CC)([C@H]2CC[C@](O)(CC)[C@H](C)O2)C[C@@H]1C
- T/C (dose: 1.56 mg/kg/injection, schedule: Q01DX009 (ip), vehicle: Klucel (hydroxypropylcellulose) (HPC)): 111 % of control
- T/C (dose: 3.12 mg/kg/injection, schedule: Q01DX009 (ip), vehicle: Klucel (hydroxypropylcellulose) (HPC)): 102 % of control
- T/C (dose: 6.25 mg/kg/injection, schedule: Q01DX009 (ip), vehicle: Klucel (hydroxypropylcellulose) (HPC)): 111 % of control

Structure (SMILES): O=C(O)CC(=O)O.[NH-]C1CCCCC1[NH-].[Pt+2] (stereo unspecified)
- T/C (dose: 10.0 mg/kg/injection, schedule: Q01DX009 (ip), vehicle: dextrose): 150 % of control
- T/C (dose: 12.5 mg/kg/injection, schedule: Q01DX009 (ip), vehicle: dextrose): 196 % of control
- T/C (dose: 24.0 mg/kg/injection, schedule: Q01DX009 (ip), vehicle: other): 150 % of control
- T/C (dose: 25.0 mg/kg/injection, schedule: Q01DX009 (ip), vehicle: dextrose): 163 % of control

Structure (SMILES): CCC(C)C#N (stereo unspecified)
- T/C (dose: 5.0 mg/kg/injection, schedule: Q01DX009 (ip), vehicle: saline): 97 % of control
- T/C (dose: 10.0 mg/kg/injection, schedule: Q01DX009 (ip), vehicle: saline): 95 % of control
- T/C (dose: 20.0 mg/kg/injection, schedule: Q01DX009 (ip), vehicle: saline): 100 % of control

Structure (SMILES): Cc1cccc2cc3c(ccc4ccccc43)c[n+]12
- T/C [19]: 105 % of control
- T/C [20]: 107 % of control
- T/C [21]: 102 % of control

Structure (SMILES): Cc1cc(N(CCOS(C)(=O)=O)CCOS(C)(=O)=O)ccc1C=Nc1ccc(-c2nc(Cc3ccccc3)sc2C)cc1
- T/C [17]: 165 % of control
- T/C [18]: 174 % of control
- T/C [3]: 107 % of control

Structure (SMILES): Cc1cc([N+](=O)[O-])c(S(N)(=O)=O)c([N+](=O)[O-])c1
- T/C (dose: 6.25 mg/kg/injection, schedule: Q01DX009 (ip), vehicle: water): 110 % of control
- T/C (dose: 12.5 mg/kg/injection, schedule: Q01DX009 (ip), vehicle: water): 100 % of control
- T/C (dose: 25.0 mg/kg/injection, schedule: Q01DX009 (ip), vehicle: water): 101 % of control
- T/C (dose: 50.0 mg/kg/injection, schedule: Q01DX009 (ip), vehicle: water): 103 % of control
- T/C (dose: 100.0 mg/kg/injection, schedule: Q01DX009 (ip), vehicle: water): 101 % of control

Structure (SMILES): CC(NC(=O)C(C)NC(=O)C(N)CCC(=O)O)C(=O)O (stereo not drawn) (H-Glu-Ala-Ala-OH; configuration not given here)
- T/C [10]: 111 % of control
- T/C [11]: 96 % of control
- T/C [12]: 105 % of control
- T/C (dose: 400.0 mg/kg/injection, schedule: Q01DX009 (ip), vehicle: saline): 94 % of control

Structure (SMILES): CCCCC(CCC)(CCN)CCCC
- T/C [19]: 102 % of control
- T/C [20]: 97 % of control
- T/C [21]: 100 % of control

Structure (SMILES): CCOc1ccc(NC(=O)Nc2ccccc2)cc1
- T/C [7]: 86 % of control

Structure (SMILES): O=C(Nc1ccc(C(=O)O)cc1)Oc1ccc(N(CCCl)CCCl)cc1
- T/C (dose: 3.13 mg/kg/injection, schedule: Q04DX003 (ip), vehicle: saline with Tween-80): 109 % of control
- T/C (dose: 6.25 mg/kg/injection, schedule: Q04DX003 (ip), vehicle: saline with Tween-80): 109 % of control
- T/C [1]: 165 % of control
- T/C (dose: 12.5 mg/kg/injection, schedule: Q04DX003 (ip), vehicle: saline with Tween-80): 123 % of control
- T/C [17]: 154 % of control
- T/C [2]: 110 % of control
- T/C (dose: 25.0 mg/kg/injection, schedule: Q04DX003 (ip), vehicle: saline with Tween-80): 151 % of control
- T/C (dose: 50.0 mg/kg/injection, schedule: Q04DX003 (ip), vehicle: saline with Tween-80): 164 % of control
- T/C (dose: 100.0 mg/kg/injection, schedule: Q04DX003 (ip), vehicle: saline with Tween-80): 205 % of control

Structure (SMILES): COc1cccc(CN(C)CCC(=O)O)c1
- T/C [4]: 104 % of control
- T/C [5]: 102 % of control
- T/C [6]: 101 % of control

Structure (SMILES): CCC(CC)(C[NH-])C[NH-].[Cl][Pt+2][Cl]
- T/C (dose: 1.2 mg/kg/injection, schedule: Q01DX009 (ip), vehicle: carboxymethylcellulose (CMC)): 164 % of control
- T/C (dose: 2.4 mg/kg/injection, schedule: Q01DX009 (ip), vehicle: carboxymethylcellulose (CMC)): 164 % of control

Structure (SMILES): Cc1cc(NS(=O)(=O)c2ccccc2)c2c(c1NS(=O)(=O)c1ccccc1)CC=CC2
- T/C [4]: 97 % of control
- T/C [5]: 94 % of control
- T/C [6]: 86 % of control

— PubChem BioAssay AID192 (DTP/NCI, 2004)
